The source of these data is patent publication US20250241848A1 (priority 2011, published 2025).

The assay relates to axillary sweat production. To be noted: human, in vivo.
As to `CCCCCCCCCCCCCC(=O)OC(C)C` [Isopropyl Myristate], the “greater effectiveness in reducing sweat production than placebo” value was 191%, the “greater reduction in sweat production than the subjects in the control group” value worked out at 195%, the “reduction in sweat production (on average)” value is recorded as 103 mg and the “subjects with at least a 30% reduction in sweat production compared to Baseline visit” value is on record as 55%.
With `CCCOC(=O)c1ccc(O)cc1` [Propylparaben], the “greater effectiveness in reducing sweat production than placebo” value is reported as 245%, the “greater reduction in sweat production than the subjects in the control group” value is 337%, the “reduction in sweat production (on average)” value is reported as 177 mg and the “subjects with at least a 30% reduction in sweat production compared to Baseline visit” value is listed as 70%.
The corresponding values for Polysorbate 80 are 280%, 300%, 159 mg and 80%.
